Counter-ions that a name gives are not always drawn.
How the values were obtained:
Format in all cases: biochemical, Pseudomonas sp. No. 15-1
[1] = system: N-acetylhexosamine oxidase; assay: Activity inhibition by metalic ion or inhibitor; conditions: for inhibition of enzyme activity (in words): 1.8mM metalic ion
[2] = system: N-acetylhexosamine oxidase; assay: Activity stabilization by bovine serum albumin in heat treatment; conditions: 1 mg/ml in potassium phosphate buffer solution of pH 6.8; 10 minutes heat treatment
Description: Further, in 10 minutes heat treatment at 45° C., the present enzyme is stable between pH 3 and pH 9 and loses its activity rapidly at a more acidic region and slowly at a more alkaline region. In this experiment, the hydrogen peroxide method was adopted, and the residual activity of the present enzyme subjected to 10 minutes heat treatment in a potassium phosphate buffer solution of pH 6.8 at each temperature was compared with the residual activity of the same enzyme subjected to the same treatment in a potassium phosphate buffer solution of pH 6.8 containing 1 mg/ml of bovine serum albumin.

[3] = system: N-acetylhexosamine oxidase; assay: Action and specificity for substrate; conditions: in the presence of oxygen
Description: As shown in the following reaction formula, the present enzyme oxidizes N-acetylhexosamine in the presence of oxygen to form N-acetylhexosaminic acid and hydrogen peroxide.

[4] = 1.8mM metalic ion or inhibitor, tris-hydrochloric acid buffer solution of pH 7.5
[5] = tris-hydrochloric acid buffer solution of pH 7.5

Compound | Residual activity (%) [1, 4] | inhibition of enzyme activity (in words) [1, 5] | also measured
O=S(=O)([O-])[O-].[Zn+2] [ZnSO4] | 2% | inhibited greatly | –
CC(=O)[O-].CC(=O)[O-].[Pb+2] [Pb(CH3 COO)2] | 42% | considerably | –
O=S(=O)([O-])[O-].[Fe+2] [FeSO4] | 15% | inhibited greatly | –
O=S(=O)([O-])[O-].[Cd+2] [CdSO4] | 52% | considerably | –
[Ca+2].[Cl-].[Cl-] [CaCl2] | 91% | – | –
O=S(=O)([O-])[O-].[Mn+2] [MnSO4] | 84% | – | –
O=C(O)CN(CCN(CC(=O)O)CC(=O)O)CC(=O)O [EDTA, Etheylenediaminetetracetic acid sodium salt] | – | – | Residual activity (%) ([1]; pH 7.5): 87%
bovine serum albumin | – | – | effect of addition on enzyme activity [2]: stabilized and moreover slightly enhanced
O=S(=O)([O-])[O-].[Mg+2] [MgSO4] | 86% | – | –
O=S(=O)([O-])[O-].[Ni+2] [NiSO4] | 64% | considerably | –
CCCCCCCCCCCCOS(=O)(=O)[O-].[Na+] [SDS, Sodium dodecylsulfate] | 87% | – | –
NC(=O)CI [ICH2 CONH2] | 90% | – | –
O=C(O)c1cc[c]([Hg][Cl])cc1 [PCMB, pChloromercurybenzoate] | 67% | – | –
c1cnc2c(c1)ccc1cccnc12 [O'--Phenanthroline] | 81% | – | –
HgCl2 | 17% | inhibited greatly | –
O=[N+]([O-])[O-].[Ag+] [AgNO3] | – | – | Residual activity (%) ([1]; 1.8mM, Phosphate buffer solution): 5%
O=S(=O)([O-])[O-].[Cu+2] [CuSO4] | 74% | – | –
CC(=O)N[C@H]1[C@H]([C@H](O)[C@H](O)CO)OC(O)(C(=O)O)C[C@@H]1O (stereo partly shown) [N-acetylneuraminic acid] | – | – | action of the enzyme on the substrate [3]: hardly acts or does not all act
O=S(=O)([O-])[O-].[Co+2] [CoSO4] | 75% | – | –

Source: patent publication US4621057A (Noda Institute for Scientific Research, priority 1983, dated 1986)
